Test results: PubChem BioAssay AID2060908 (Molecular Pharmacology Branch, DTP, NCI, 2025)

System: 186277-243-T-J2-PDC complex spheroids, viability
Assay: Anticancer human tumor 186277-243-T-J2-PDC patient-derived colon adenocarcinoma cell line growth inhibition [RAS]
Conditions: for IC50: curve of first compound; for viability, T/C: stronger effect = lower value
From the text: RAS pathway inhibitors in Combinations in Complex Spheroids
A high-throughput screen of multi-cell type tumor spheroids was designed to identify active combinations of RAS pathway inhibitors and targeted small molecules. Complex spheroids include a stromal component modeled by human endothelial cells (HUVEC) and fibroblasts modeled by human mesenchymal stem cells (MSCs). The concentration ranges selected for each drug and investigational agent were based upon clinically achievable concentrations if the clinical Cmax of the agent was known.
Compounds. The drugs and investigational agents: abemaciclib (NSC768073), cobimetinib (NSC768068), divarasib (GDC6063, NSC841802), docetaxel (NSC628503), GDC-1971 (RLY-1971, NSC841576), gemcitabine (NSC613327), inavolisib (NSC800729), ipatasertib (NSC767898), KB-0742 (NSC834161), MRTX-1133 (NSC836407), osimertinib (NSC779217), RMC-4630 (NSC839698), RMC-6236 (NSC851965), RMC-6291 (NSC852671), Ro-3306 (NSC812927), sapanisertib (NSC764658), SN-38 (NSC673596), staurosporine (NSC755774), SY5609 (NSC837396), and tovorafenib (DAY101, NSC766906), were obtained from the National Cancer Institute (NCI) Developmental Therapeutics Program Chemical Repository. The FDA-approved anticancer drug set is available from the NCI Developmental Therapeutics Program. […] The stock solutions were prepared in dimethyl sulfoxide (DMSO, Sigma-Aldrich, St. Louis, MO, cat. D2650) at 800-fold the tested concentration and stored at -70 degrees C prior to their use. All drugs and investigational agents were tested over a range starting from a high concentration at or near the clinical Cmax and decreasing in half-log increments. If the clinical Cmax for an agent had not been determined, the highest concentration tested was 10 microM.
Cell Culture. All cells were maintained in an incubator at 37 degrees C and 5% CO2 with 95% humidity. The PDC lines were cultured according to standard operating procedures established by the NCI PDMR. All PDCs were thawed and cultured in Matrigel-coated flasks prepared with a working solution of 1X Ham's F-12 nutrient mix, without supplementation (Invitrogen, Waltham, MA, cat. 11765054), 100 U/mL penicillin-streptomycin (Invitrogen, cat. 15140122), and 2.5% Matrigel (Corning Inc., Corning, NY, cat. 354248) for the first three passages. The 362531-283-R-J2-PDC and 782815-120-R-J1-PDC lines were cultured in 6C/Colon 1B media, which includes advanced DMEM/F-12 (Thermo Fisher Scientific, cat. 12634028), 10 mM HEPES (Thermo Fisher Scientific, cat. 15630080), 1X GlutaMAX supplement (Thermo Fisher Scientific, cat. 35050061), 0.1 mg/mL primocin (InvivoGen, San Diego, CA, cat. ant-pm-2), 10% defined fetal bovine serum, heat inactivated (HyClone Laboratories Inc., Logan, UT, cat. SH30070.03HI), 50% L-WRN conditioned media (ATCC, cat. CRL-3276), 1.25 mM N-Acetyl-L-cysteine (Sigma-Aldrich, cat. A9165), 10 mM nicotinamide (Sigma-Aldrich, cat. N0636), 1X B-27 supplement (Thermo Fisher Scientific, cat. 17504044), 1X N-2 supplement (Thermo Fisher Scientific, cat. 17502048), 50 ng/mL human EGF (Thermo Fisher Scientific, cat. PHG0311), and 10 microM Y-27632 dihydrochloride (Tocris Bioscience, cat. 1254). The K12877-001-R-J1-PDC line was cultured in 6I media, which includes all 6C/Colon 1B media plus 10 ng/mL human FGF-10 (PeproTech, cat. 100-26), 1 ng/mL human FGF-2 (PeproTech, cat. 100-18B), 1 µM prostaglandin E2 (Tocris Bioscience, cat. 2296), […] hydrocortisone (Sigma-Aldrich, cat. H4001), and […] bovine insulin (Sigma-Aldrich, cat. I6634). The K86415-001-R-J1-PDC line was cultured in 6D media, which includes all 6C/Colon 1B media components minus the L-WRN conditioned media. The 485176-168-R4-J1-PDC was cultured in PANC media, which includes all 6C/Colon 1B media plus 100 ng/mL human FGF-10 (PeproTech, cat. 100-26), 500 nM SB-431542 (Selleckchem, cat. S1067), and 10 nM gastrin (Tocris Bioscience, cat. 3006). […]
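Note: spheroids exposed to compounds for 7 days before viability read.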

Question: With CCC(CC)c1cc(NC2CCC(N)C2)n2nccc2n1 (configuration not stated) + C#Cc1c(F)ccc2cc(O)cc(-c3ncc4c(N5CC6CCC(C5)N6)nc(OCC56CCCN5CC(F)C6)nc4c3F)c12 as the compound, how does the IC50 (second compound 0.0316 µM) read?
Answer: The IC50 was 672 nM.

Question: And the IC50 (second compound 0.1 µM)?
Answer: Its IC50 is 564 nM.

Question: What about the IC50 (second compound 0.316 µM) of the same compound?
Answer: Its IC50 is under 31.6 nM.

Question: What about the IC50 (second compound 1 µM) of the same compound?
Answer: Its IC50 is under 31.6 nM.

Question: What about the IC50 (second compound 3.16 µM) of the same compound?
Answer: Its IC50 is under 31.6 nM.

Question: And the IC50 (second compound 10 µM)?
Answer: Its IC50 is under 31.6 nM.

Question: And the viability, T/C (second compound 0.0316 µM, first compound 0.0316 µM)?
Answer: Its viability, T/C is 79.8%.

Question: And the viability, T/C (second compound 0.0316 µM, first compound 0.1 µM)?
Answer: Its viability, T/C is 77.9%.

Question: What about the viability, T/C (second compound 0.0316 µM, first compound 0.316 µM) of the same compound?
Answer: Its viability, T/C is 79.6%.

Question: What about the viability, T/C (second compound 0.0316 µM, first compound 1 µM) of the same compound?
Answer: Its viability, T/C is 34.8%.

Question: And the viability, T/C (second compound 0.0316 µM, first compound 3.16 µM)?
Answer: The viability, T/C was 3.07%.

Question: And the viability, T/C (second compound 0.0316 µM, first compound 10 µM)?
Answer: The viability, T/C was 0.17%.

Question: And the viability, T/C (second compound 0.1 µM, first compound 0.0316 µM)?
Answer: The viability, T/C was 56.6%.

Question: And the viability, T/C (second compound 0.1 µM, first compound 0.1 µM)?
Answer: The viability, T/C was 77.6%.

Question: And the viability, T/C (second compound 0.1 µM, first compound 0.316 µM)?
Answer: Its viability, T/C is 69%.

Question: What about the viability, T/C (second compound 0.1 µM, first compound 1 µM) of the same compound?
Answer: Its viability, T/C is 32.4%.

Question: And the viability, T/C (second compound 0.1 µM, first compound 3.16 µM)?
Answer: Its viability, T/C is 2.77%.

Question: What about the viability, T/C (second compound 0.1 µM, first compound 10 µM) of the same compound?
Answer: The viability, T/C was 0.13%.

Question: And the viability, T/C (second compound 0.316 µM, first compound 0.0316 µM)?
Answer: Its viability, T/C is 32.8%.

Question: And the viability, T/C (second compound 0.316 µM, first compound 0.1 µM)?
Answer: The viability, T/C was 40%.

Question: And the viability, T/C (second compound 0.316 µM, first compound 0.316 µM)?
Answer: Its viability, T/C is 33.4%.

Question: And the viability, T/C (second compound 0.316 µM, first compound 1 µM)?
Answer: The viability, T/C was 17.3%.

Question: And the viability, T/C (second compound 0.316 µM, first compound 3.16 µM)?
Answer: The viability, T/C was 2.52%.

Question: And the viability, T/C (second compound 0.316 µM, first compound 10 µM)?
Answer: The viability, T/C was 0.1%.

Question: And the viability, T/C (second compound 1 µM, first compound 0.0316 µM)?
Answer: The viability, T/C was 16.6%.

Question: What about the viability, T/C (second compound 1 µM, first compound 0.1 µM) of the same compound?
Answer: Its viability, T/C is 21.3%.

Question: What about the viability, T/C (second compound 1 µM, first compound 0.316 µM) of the same compound?
Answer: Its viability, T/C is 19.9%.

Question: What about the viability, T/C (second compound 1 µM, first compound 1 µM) of the same compound?
Answer: The viability, T/C was 11.3%.

Question: And the viability, T/C (second compound 1 µM, first compound 3.16 µM)?
Answer: Its viability, T/C is 2.86%.

Question: And the viability, T/C (second compound 1 µM, first compound 10 µM)?
Answer: The viability, T/C was 0.14%.

Question: What about the viability, T/C (second compound 3.16 µM, first compound 0.0316 µM) of the same compound?
Answer: The viability, T/C was 11.1%.

Question: What about the viability, T/C (second compound 3.16 µM, first compound 0.1 µM) of the same compound?
Answer: Its viability, T/C is 14%.

Question: What about the viability, T/C (second compound 3.16 µM, first compound 0.316 µM) of the same compound?
Answer: Its viability, T/C is 12.2%.

Question: And the viability, T/C (second compound 3.16 µM, first compound 1 µM)?
Answer: The viability, T/C was 10.1%.

Question: And the viability, T/C (second compound 3.16 µM, first compound 3.16 µM)?
Answer: Its viability, T/C is 2.81%.

Question: What about the viability, T/C (second compound 3.16 µM, first compound 10 µM) of the same compound?
Answer: Its viability, T/C is 0.16%.

Question: And the viability, T/C (second compound 10 µM, first compound 0.0316 µM)?
Answer: The viability, T/C was 9.8%.

Question: What about the viability, T/C (second compound 10 µM, first compound 0.1 µM) of the same compound?
Answer: Its viability, T/C is 9.61%.

Question: And the viability, T/C (second compound 10 µM, first compound 0.316 µM)?
Answer: The viability, T/C was 8.97%.

Question: And the viability, T/C (second compound 10 µM, first compound 1 µM)?
Answer: The viability, T/C was 6.36%.

Question: And the viability, T/C (second compound 10 µM, first compound 3.16 µM)?
Answer: The viability, T/C was 2.12%.

Question: And the viability, T/C (second compound 10 µM, first compound 10 µM)?
Answer: The viability, T/C was 0.21%.
